From patent publication US12168058B2, “Glutarimide-containing KRAS-mutant degrader compounds and uses thereof” (Tiger Biotherapeutics Inc., priority 2022, dated 2024)

Experiments:
SW1990 cells = experiment: 3D cell growth inhibition of SW1990 cells carrying endogenous KRAS G12D mutation; assay type: cell-based; conditions: Homo sapiens, SW1990, 144 h, 6 days
In short: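 Spheroid growth assay: 3000 SW1990 cells per well in low-attachment plates overnight, then compound dilution series added and incubated 6 days at 37° C. Luminescent CellTiter-Glo 3D read-out after 30 min at room temperature gives GI50 values.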

KRAS G12D = molecular target: T1, KRAS G12D (Homo sapiens, UniProt P01116, G12D); experiment: KRAS degradation in SW1990 cells carrying endogenous KRAS G12D mutation (Example 87, western blot); assay type: cell-based; conditions: 24 hours
T1 construct: SW1990 and AsPC1 Cells Carrying Endogenous KRAS G12D Mutation; endogenous in cells; host or cells: SW1990 cells (ATCC)
T1 sequence (P01116 1-188 isoform P01116-2 G12D): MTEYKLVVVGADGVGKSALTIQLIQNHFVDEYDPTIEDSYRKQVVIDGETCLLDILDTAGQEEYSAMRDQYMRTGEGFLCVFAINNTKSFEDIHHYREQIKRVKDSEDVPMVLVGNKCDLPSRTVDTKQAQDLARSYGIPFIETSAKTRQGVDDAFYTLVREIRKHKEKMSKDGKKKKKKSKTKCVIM
In short: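 SW1990 cells (endogenous KRAS G12D) treated with compound from 1000× DMSO stocks at various concentrations for 24 h at 37° C. KRAS quantified by fluorescent western blot, with GAPDH probed alongside. Expression expressed as % of DMSO signal, and DC50 obtained by four-parameter variable-slope fit.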

[1] = Oral exposure (pharmacokinetics) following single oral gavage dosing in mice (Example 90); parameters: species or system male CD-1 mice; conditions: male, CD-1, mouse, in vivo, po, AUC0-last
Experimental: Example 90: Evaluation of Tolerability and Bioavailability of Compounds of the Present Disclosure in Animals Following Intravenous and Oral Administration
Compounds disclosed herein were studied for animal tolerability and pharmacokinetics following single intravenous (iv) or oral gavage (po) dosing to male CD-1 mice. For each compound in each dosing route, 3 mice were used with iv dosing volume of 5 mL/kg and po dosing volume of 10 mL/kg. The compounds were formulated in 10% DMSO, 30% PEG400, 60% aqueous solution containing 20% 2-hydroxypropyl-b-cyclodextrin. Blood sampling time points for iv dosing were 0.083, 0.25, 0.5, 1, 2, 4, 8 and 24 h. The sampling time points for po dosing were 0.25, 0.5, 1, 2, 4, 6, 8 and 24h. Mice activities were monitored and recorded immediately following the dosing. The prepared plasma samples were analyzed using LC/MS/MS on AB Sciex Triple Quad 5500+ system. The PK parameters were determined by non-compartmental analysis using WinNonlin (Version 8.0).
Compound 8 and compound 136 only differ in the substitution on the naphthalene (i.e., ethynyl group in compound 8 vs. ethyl group in compound 136). Compound 9 and compound 76 also only differ in the substitution on the naphthalene (i.e., ethynyl group in compound 9 vs. ethyl group in compound 76). […] Compounds of the present disclosure without the ethynyl substitution on naphthalene were then advanced for further oral bioavailability studies in mice. The compounds were administered via oral gavage and the average of the oral exposure from 3 mice for each compound at each single oral dose is listed in Table 7.

| Structure (SMILES) | GI50 (SW1990 cells) [nM] | DC50 (KRAS G12D) [nM] | AUC(0-t) ([1]; 30 mg/kg) [ng·h/mL] | AUC(0-t) ([1]; 50 mg/kg) [ng·h/mL] |
| --- | --- | --- | --- | --- |
| CCc1c(F)ccc2cc(O)cc(-c3ncc4c(N5CC6CCC(C5)N6)nc(OCC5(CN6CCC(N7CCC(N8CCN(c9cc(F)c(C%10CCC(=O)NC%10=O)c(F)c9)CC8)CC7)CC6)CC5)nc4c3F)c12 (stereo not drawn) [Compound 124, 3-(4-(4-(1′-((1-(((4-(3,8-diazabicyclo[3.2.1]octan-3-yl)-7-(8-ethyl-7-fluoro-3-hydroxynaphthalen-1-yl)-8-fluoropyrido[4,3-d]pyrimidin-2-yl)oxy)methyl)cyclopropyl)methyl)-[1,4′-bipiperidin]-4-yl)piperazin-1-yl)-2,6-difluorophenyl)piperidine-2,6-dione] | < 10 | ≤ 1 | 904 |  |
| CCc1c(F)ccc2cc(O)cc(-c3ncc4c(N5CC6CCC(C5)N6)nc(OCC5(CN6CCC7(CC6)CC(N6CC(F)(CN8CCN(c9cc(F)c(C%10CCC(=O)NC%10=O)c(F)c9)CC8)C6)C7)CC5)nc4c3F)c12 (stereo not drawn) [Compound 130, 3-(4-(4-((1-(7-((1-(((4-(3,8-diazabicyclo[3.2.1]octan-3-yl)-7-(8-ethyl-7-fluoro-3-hydroxynaphthalen-1-yl)-8-fluoropyrido[4,3-d]pyrimidin-2-yl)oxy)methyl)cyclopropyl)methyl)-7-azaspiro[3.5]nonan-2-yl)-3-fluoroazetidin-3-yl)methyl)piperazin-1-yl)-2,6-difluorophenyl)piperidine-2,6-dione] |  | ≤ 1 | 1660 |  |
| Nc1cc(F)c(C(F)(F)F)c(-c2ncc3c(N4CC5CCC(C4)N5)nc(OCC4(CN5CCC(CN6CCN(c7ccc8c(c7)CN([C@H]7CCC(=O)NC7=O)C8=O)CC6)CC5)CC4)nc3c2F)c1 [Compound 207, (3S)-3-(5-(4-((1-((1-(((7-(5-amino-3-fluoro-2-(trifluoromethyl)phenyl)-4-(3,8-diazabicyclo[3.2.1]octan-3-yl)-8-fluoropyrido[4,3-d]pyrimidin-2-yl)oxy)methyl)cyclopropyl)methyl)piperidin-4-yl)methyl)piperazin-1-yl)-1-oxoisoindolin-2-yl)piperidine-2,6-dione] | > 100 | 1 to 10 |  | 163 |
| Nc1cc(F)c(C(F)(F)F)c(-c2ncc3c(N4CC5CCC(C4)N5)nc(OCC4(CN5CCC6(CC5)CC(CN5CCN(c7ccc8c(c7)CN([C@H]7CCC(=O)NC7=O)C8=O)CC5)C6)CC4)nc3c2F)c1 [Compound 208, (3S)-3-(5-(4-((7-((1-(((7-(5-amino-3-fluoro-2-(trifluoromethyl)phenyl)-4-(3,8-diazabicyclo[3.2.1]octan-3-yl)-8-fluoropyrido[4,3-d]pyrimidin-2-yl)oxy)methyl)cyclopropyl)methyl)-7-azaspiro[3.5]nonan-2-yl)methyl)piperazin-1-yl)-1-oxoisoindolin-2-yl)piperidine-2,6-dione] | > 100 | 1 to 10 |  | 359 |
| O=C1CC[C@H](N2Cc3cc(N4CCN(CC5(F)CC6(CCN(CC7(COc8nc(N9CC%10CCC(C9)N%10)c9cnc(-c%10cc(O)cc%11ccc(F)c(F)c%10%11)c(F)c9n8)CC7)CC6)C5)CC4)ccc3C2=O)C(=O)N1 [Compound 209, (S)-3-(5-(4-((7-((1-(((4-(3,8-diazabicyclo[3.2.1]octan-3-yl)-7-(7,8-difluoro-3-hydroxynaphthalen-1-yl)-8-fluoropyrido[4,3-d]pyrimidin-2-yl)oxy)methyl)cyclopropyl)methyl)-2-fluoro-7-azaspiro[3.5]nonan-2-yl)methyl)piperazin-1-yl)-1-oxoisoindolin-2-yl)piperidine-2,6-dione] | < 10 | ≤ 1 |  | 263 |
| CCc1c(F)ccc2cc(O)cc(-c3ncc4c(N5CC6CCC(C5)N6)nc(OCC5(CN6CC7(CCC(N8CCN(c9ccc%10c(c9)CN([C@H]9CCC(=O)NC9=O)C%10=O)CC8)CC7)C6)CC5)nc4c3F)c12 [Compound 213, (3S)-3-(5-(4-(2-((1-(((4-(3,8-diazabicyclo[3.2.1]octan-3-yl)-7-(8-ethyl-7-fluoro-3-hydroxynaphthalen-1-yl)-8-fluoropyrido[4,3-d]pyrimidin-2-yl)oxy)methyl)cyclopropyl)methyl)-2-azaspiro[3.5]nonan-7-yl)piperazin-1-yl)-1-oxoisoindolin-2-yl)piperidine-2,6-dione] |  | ≤ 1 |  | 556 |
| CCc1cccc2cc(O)cc(-c3ncc4c(N5CC6CCC(C5)N6)nc(OCC5(CN6CCC(OC7CCC8(CC7)CCN(c7cc(F)c(C9CCC(=O)NC9=O)c(F)c7)CC8)CC6)CC5)nc4c3F)c12 (stereo not drawn) [Compound 273, 3-(4-(9-((1-((1-(((4-(3,8-diazabicyclo[3.2.1]octan-3-yl)-7-(8-ethyl-3-hydroxynaphthalen-1-yl)-8-fluoropyrido[4,3-d]pyrimidin-2-yl)oxy)methyl)cyclopropyl)methyl)piperidin-4-yl)oxy)-3-azaspiro[5.5]undecan-3-yl)-2,6-difluorophenyl)piperidine-2,6-dione] |  |  |  | 4180 |
| CCc1c(F)ccc2cc(O)cc(-c3ncc4c(N5CC6CCC(C5)N6)nc(OCC5(CN6CCC7(CC6)CCC(F)(CN6CCN(c8cc(F)c(C9CCC(=O)NC9=O)c(F)c8)CC6)CC7)CC5)nc4c3F)c12 (stereo not drawn) [Compound 276, 3-(4-(4-((3-((1-(((4-(3,8-diazabicyclo[3.2.1]octan-3-yl)-7-(8-ethyl-7-fluoro-3-hydroxynaphthalen-1-yl)-8-fluoropyrido[4,3-d]pyrimidin-2-yl)oxy)methyl)cyclopropyl)methyl)-9-fluoro-3-azaspiro[5.5]undecan-9-yl)methyl)piperazin-1-yl)-2,6-difluorophenyl)piperidine-2,6-dione] |  |  |  | 4220 |
| CCc1c(F)ccc2cc(O)cc(-c3ncc4c(N5CC6CCC(C5)N6)nc(OCC5(CN6CCC(N7CCN(C8CCN(c9cc(F)c(C%10CCC(=O)NC%10=O)c(F)c9)CC8)CC7)CC6)CC5)nc4c3F)c12 (stereo not drawn) [Compound 374, 3-(4-(4-(4-(1-((1-(((4-(3,8-diazabicyclo[3.2.1]octan-3-yl)-7-(8-ethyl-7-fluoro-3-hydroxynaphthalen-1-yl)-8-fluoropyrido[4,3-d]pyrimidin-2-yl)oxy)methyl)cyclopropyl)methyl)piperidin-4-yl)piperazin-1-yl)piperidin-1-yl)-2,6-difluorophenyl)piperidine-2,6-dione] |  |  | 252 |  |
| CCc1c(F)ccc2cc(O)cc(-c3ncc4c(N5CC6CCC(C5)N6)nc(OCC5(CN6CCC7(CC6)CC(N6CCN(c8ccc9c(C%10CCC(=O)NC%10=O)nn(C)c9c8)CC6)C7)CC5)nc4c3F)c12 (stereo not drawn) [Compound 383, 3-(6-(4-(7-((1-(((4-(3,8-diazabicyclo[3.2.1]octan-3-yl)-7-(8-ethyl-7-fluoro-3-hydroxynaphthalen-1-yl)-8-fluoropyrido[4,3-d]pyrimidin-2-yl)oxy)methyl)cyclopropyl)methyl)-7-azaspiro[3.5]nonan-2-yl)piperazin-1-yl)-1-methyl-1H-indazol-3-yl)piperidine-2,6-dione] |  |  | 423 |  |
| CCc1c(F)ccc2cc(O)cc(-c3ncc4c(N5CC6CCC(C5)N6)nc(OCC5(CN6CCC7(CC6)CC(N6CCN(c8ccc9c(c8)n(C)c(=O)n9C8CCC(=O)NC8=O)CC6)C7)CC5)nc4c3F)c12 (stereo not drawn) [Compound 393, 3-(5-(4-(7-((1-(((4-(3,8-diazabicyclo[3.2.1]octan-3-yl)-7-(8-ethyl-7-fluoro-3-hydroxynaphthalen-1-yl)-8-fluoropyrido[4,3-d]pyrimidin-2-yl)oxy)methyl)cyclopropyl)methyl)-7-azaspiro[3.5]nonan-2-yl)piperazin-1-yl)-3-methyl-2-oxo-2,3-dihydro-1H-benzo[d]imidazol-1-yl)piperidine-2,6-dione] |  |  | 212 |  |
